{"source": "patent US20250041451A1", "about": "“GENE THERAPY FOR HEARING LOSS” (Perceive Biotherapeutics, Inc., priority 2021, published 2025)", "key": {"[1]": {"tested_on": "cochlear hair cells (mouse cochlear explants)", "format": "cell-based", "settings": "for number of viable hair cells: untreated explants 17-52", "source_text": "In some embodiments, an in vitro method is employed. An illustrative assay uses an aminoglycoside-induced model (using gentamycin) of hair cell death using cochlear explants. In brief, the cochleae are collected from test animal, e.g., mice. All cochleae are combined in the same dissection maintenance bath and plated as an individual sample. The following morning, high magnification digital images of cochlea are taken and cochlear explant is assigned to groups. A desired number of explants will be used for further gentamicin treatment. Test article and positive control article are dosed ˜6 hours either prior, together with, or following to gentamicin for a duration of up to 3 days. If the culture medium is replaced (e.g. when gentamicin is added/removed), the test or positive control article will be re-administered. The cochlea are cultured and observed for health and survival. At the end of the culture cochlear explants are bathed with buffer and processed for cochleogram. Following the fixation, all the cochlear explants undergo immunofluorescent staining with anti-Myosin VIIa and Phalloidin in order to specifically label the hair cells. The explants are then mounted on microscope slides, and imaged utilizing a confocal microscope using the same laser power settings for all samples. Cochlear fragment images are then divided into 20% fragments from the apex to the base. MyosinVIIa light intensity is quantified in each fragment and compared among groups. Image analysis is performed using an imaging platform, e.g., a Fiji image analysis platform. Explants are scanned using confocal microscope with filters for 488 nm and 594 nm wave lengths. Scanning is performed using the same laser power through the entire imaging for proper light intensity calculation. For analysis, cochlea can be divided in fragment of X %. Intensity of light coming from MyoVii is quantified in each fragment and compared among groups.\nMouse cochlear explants were treated with “ORI-069” a small molecule inhibitor of DLK and LZK. ORI-069 is 2-Amino-N-[(2S)-butan-2-yl]-7-(1-{2-methyl-1-[6-(trifluoromethyl)pyridin-3-yl]propyl}-1H-pyrazol-4-yl)[1,2,4]triazolo[1,5-ca]pyridine-5-carboxamide (stereoisomers 2, eutomer).\nAnimals were euthanized in accordance with American Veterinary Medical Association guidelines and cochleae were collected. All cochleae from each group were combined in the same dissection maintenance bath and plated as a group.\nAt the end of the culture period, the cochlear explants were bathed with 10% neutral buffered formalin (NBF) and processed for hair cell counting. Digital images of the cultures were collected before fixation.\nFollowing fixation, all cochlear explants underwent immunofluorescent staining with anti-Myosin VIIa to specifically label the hair cells. The explants were mounted on microscope slides, then imaged utilizing a confocal microscope: 20× for full scan and with 63× oil, zoom 2.25, 4 zones along the length of the cochlea: one from 50-200 μm for each extremity, one in the 33% tile and one in the 66% tile. Detailed scanning was performed using 488 nm and 594 nm filters.\nA blind counting of all hair cells (OHC & IHC undiscriminated) was performed on 4 to 6 zones of each explant (fragments 1, 2, 3, 4, 5 and 6) through the entire z stack generated. Counting and fragment length measure was performed by 3 different individuals. Only cells without nucleus aberration, with good staining, integrity, and well delimited cell outline were considered for counting. Cell density was determined by reporting each counting to the length of the fragment. Image analysis was performed using Fiji image analysis platform, a distribution of ImageJ."}, "HC survival and hearing": {"tested_on": "HC survival and hearing", "settings": "literature (Ylikoski 2002; Pirvola 2000); cited from earlier work"}}, "note": "Where two headings read alike, the source gives them in different places.", "data": [{"compound": "CC[C@H](C)NC(=O)c1cc(-c2cnn(C(c3ccc(C(F)(F)F)nc3)C(C)C)c2)cc2nc(N)nn12", "note": "(stereo partly drawn) [ORI-069, 2-Amino-N-[(2S)-butan-2-yl]-7-(1-{2-methyl-1-[6-(trifluoromethyl)pyridin-3-yl]propyl}-1H-pyrazol-4-yl)[1,2,4]triazolo[1,5-ca]pyridine-5-carboxamide]", "values": [{"measurement": "number of hair cells compared to gentamycin treated explants", "setting": "[1]; 5 μM test article + gentamycin 50 μM", "value": "higher compared to gentamycin treated explants"}, {"measurement": "number of viable hair cells", "setting": "[1]; gentamycin 50 μM (16 h) treated explants co-administered with 0.5 μM test article, 3 days", "value": "0-20 hair cells/fragment"}, {"measurement": "number of viable hair cells", "setting": "[1]; gentamycin 50 μM (16 h) treated explants co-administered with 5 μM test article, 3 days", "value": "0-32 hair cells/fragment"}, {"measurement": "protection of explant cultures (3-D Z-stack reconstructions, FIG. 2)", "setting": "[1]; gentamycin 50 μM treated explants, concentration not given", "value": "protected explant cultures"}]}, {"compound": "CCSCc1ccc2c(c1)c1c3c(c4c5cc(CSCC)ccc5n5c4c1n2[C@H]1C[C@](O)(C(=O)OC)[C@]5(C)O1)CNC3=O", "note": "[CEP-1347]", "values": [{"measurement": "level of hair cells compared to gentamycin treated explants", "setting": "[1]; 0.5 μM test article + gentamycin 50 μM", "value": "same low level of hair cells as the gentamycin treated explants"}, {"measurement": "protective effect", "setting": "[1]; positive control, 0.5 μM + gentamycin 50 μM", "value": "did not show a protective effect"}, {"measurement": "HC survival and hearing in multiple animal models", "setting": "HC survival and hearing", "value": "increase HC survival and preserve hearing"}]}, {"compound": "gentamycin", "values": [{"measurement": "number of viable hair cells", "setting": "[1]; gentamycin 50 μM alone, single 16 h", "value": "0-14 hair cells/fragment"}]}]}
